Source: PMC3774368, “Functional Properties of Five Dictyostelium discoideum P2X Receptors” (The Journal of Biological Chemistry, 2013)

Tests used:
Format in all cases: cell-based
P2XA [1] = target: T1, P2XA (Dictyostelium discoideum, UniProt Q86JM7); experiment: whole-cell patch clamp, ADP-evoked current, HEK293 cells; details: weak agonist; external and internal Na+; authors note possible ATP impurity in commercial nucleotides
T1 construct: humanized cDNA, full length, C-terminal EYMPME (EE) tag, pcDNA3.1, transient expression in HEK293 cells
T1 sequence (Q86JM7 1-378): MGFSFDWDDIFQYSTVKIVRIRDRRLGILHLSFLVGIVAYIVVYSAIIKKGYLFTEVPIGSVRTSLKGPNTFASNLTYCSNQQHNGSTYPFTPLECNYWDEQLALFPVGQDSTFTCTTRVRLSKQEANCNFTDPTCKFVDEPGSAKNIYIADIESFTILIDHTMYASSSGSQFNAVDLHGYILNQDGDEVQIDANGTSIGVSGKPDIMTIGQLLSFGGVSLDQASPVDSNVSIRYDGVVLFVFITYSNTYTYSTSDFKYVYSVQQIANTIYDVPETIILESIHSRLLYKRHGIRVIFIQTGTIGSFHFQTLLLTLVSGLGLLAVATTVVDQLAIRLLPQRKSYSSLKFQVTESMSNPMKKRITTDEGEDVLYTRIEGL

P2XB = target: T2, P2XB (Dictyostelium discoideum, UniProt Q553Y1); experiment: whole-cell patch clamp, ATP-evoked current, HEK293 cells
T2 construct: humanized cDNA (Genscript), full length, C-terminal EYMPME (EE) tag, pcDNA3.1, transient expression in HEK293 cells
T2 sequence (Q553Y1 1-369): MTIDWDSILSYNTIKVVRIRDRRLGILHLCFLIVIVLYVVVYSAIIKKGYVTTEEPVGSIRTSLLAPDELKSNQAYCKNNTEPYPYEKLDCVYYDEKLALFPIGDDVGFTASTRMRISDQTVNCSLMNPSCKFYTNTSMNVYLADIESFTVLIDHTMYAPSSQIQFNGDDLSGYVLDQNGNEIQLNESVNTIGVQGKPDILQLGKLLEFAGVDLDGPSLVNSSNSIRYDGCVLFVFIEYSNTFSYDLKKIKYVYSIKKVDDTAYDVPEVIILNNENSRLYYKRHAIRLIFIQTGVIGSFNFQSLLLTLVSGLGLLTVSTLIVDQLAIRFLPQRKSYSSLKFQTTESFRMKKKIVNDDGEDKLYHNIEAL

P2XD = target: T3, P2XD (Dictyostelium discoideum, UniProt Q54J33); experiment: as above
T3 construct: humanized cDNA (Genscript), full length, C-terminal EYMPME (EE) tag, pcDNA3.1, transient expression in HEK293 cells
T3 sequence (Q54J33 1-407): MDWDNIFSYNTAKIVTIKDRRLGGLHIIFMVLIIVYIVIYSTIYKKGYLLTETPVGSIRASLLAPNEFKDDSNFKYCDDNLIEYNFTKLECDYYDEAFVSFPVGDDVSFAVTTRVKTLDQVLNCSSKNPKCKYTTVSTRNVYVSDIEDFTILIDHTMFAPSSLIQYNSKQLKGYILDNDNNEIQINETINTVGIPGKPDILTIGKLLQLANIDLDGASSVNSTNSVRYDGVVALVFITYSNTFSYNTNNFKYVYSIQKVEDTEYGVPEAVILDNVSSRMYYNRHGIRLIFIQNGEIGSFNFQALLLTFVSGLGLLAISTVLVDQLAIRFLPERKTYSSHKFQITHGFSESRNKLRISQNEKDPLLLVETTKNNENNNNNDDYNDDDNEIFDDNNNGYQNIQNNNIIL

P2XA [2] = target: T1, P2XA; experiment: as above
P2XE = target: T4, P2XE (Dictyostelium discoideum, UniProt Q54JH4); experiment: as above
T4 construct: humanized cDNA (Genscript), full length, C-terminal EYMPME (EE) tag, pcDNA3.1, transient expression in HEK293 cells
T4 sequence (Q54JH4 1-388): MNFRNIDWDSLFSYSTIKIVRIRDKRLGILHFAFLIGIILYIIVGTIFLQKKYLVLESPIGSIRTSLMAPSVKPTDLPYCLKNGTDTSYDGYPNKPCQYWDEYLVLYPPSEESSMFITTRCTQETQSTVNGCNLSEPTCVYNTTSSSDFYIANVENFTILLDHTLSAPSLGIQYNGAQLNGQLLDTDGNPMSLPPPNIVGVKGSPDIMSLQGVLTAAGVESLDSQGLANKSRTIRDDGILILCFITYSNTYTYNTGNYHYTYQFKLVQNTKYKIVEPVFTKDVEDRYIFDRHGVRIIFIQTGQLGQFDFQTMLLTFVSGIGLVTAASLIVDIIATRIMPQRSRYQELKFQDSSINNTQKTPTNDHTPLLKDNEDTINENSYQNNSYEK

% of ATP current at 3 mM (P2XA [1])	EC50 (P2XB) [µM]	EC50 (P2XD) [µM]	EC50 (P2XA [2]) [µM]	EC50 (P2XE) [µM]	SMILES
~ 10%	–	–	–	–	Nc1ncnc2c1ncn2[C@@H]1O[C@H](COP(=O)(O)OP(=O)(O)O)[C@@H](O)[C@H]1O [ADP]
–	~3000	~3000	158	~300	Nc1ncnc2c1ncn2[C@@H]1O[C@H](COP(=O)(O)OP(=O)(O)OP(=O)(O)O)[C@@H](O)[C@H]1O [ATP]
